Tested on: NCI-H929 complex spheroids, viability % test/control
Experiment: Anticancer human tumor NCI-H929 cell line growth inhibition [RAS];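 further: compound exposure lasted seven days before viability was read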;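 on viability, T/C: 100% = DMSO vehicle control viability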
Settings: for IC50: curve of first compound; for viability, T/C: stronger effect = lower value
Summary of the method: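 Multi-cell-type spheroids: tumor cells plus HUVEC endothelial cells and mesenchymal stem cells. RAS-pathway inhibitors were combined with targeted agents, each dosed in half-log steps down from clinical Cmax, or from 10 microM when Cmax was unknown.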

[1] = second compound 0.0316 µM, first compound 0.0316 µM
[2] = second compound 0.0316 µM, first compound 0.1 µM
[3] = second compound 0.1 µM, first compound 0.0316 µM
[4] = second compound 0.1 µM, first compound 0.1 µM
[5] = second compound 0.316 µM, first compound 0.0316 µM
[6] = second compound 0.316 µM, first compound 0.1 µM
[7] = second compound 1 µM, first compound 0.0316 µM
[8] = second compound 1 µM, first compound 0.1 µM

## CC(C)n1nc(-c2ccc3oc(N)nc3c2)c2c(N)ncnc21 + C=CC(=O)N1CCN(c2nc(OCC3CCCN3C)nc3c(F)c(-c4nc(N)cc(C)c4C(F)(F)F)c(Cl)cc23)C(C)C1
Second compound 0.00316 µM
  IC50: 63.2 nM
Second compound 0.01 µM
  IC50: 64.7 nM
Second compound 0.0316 µM
  IC50: 65 nM
Second compound 0.1 µM
  IC50: 64.2 nM
Second compound 0.316 µM
  IC50: 65.5 nM
Second compound 1 µM
  IC50: 64.4 nM
Second compound 0.00316 µM, first compound 0.000316 µM
  viability, T/C: 102%
Second compound 0.00316 µM, first compound 0.001 µM
  viability, T/C: 104%
Second compound 0.00316 µM, first compound 0.00316 µM
  viability, T/C: 112%
Second compound 0.00316 µM, first compound 0.01 µM
  viability, T/C: 111%
Second compound 0.00316 µM, first compound 0.0316 µM
  viability, T/C: 118%
Second compound 0.00316 µM, first compound 0.1 µM
  viability, T/C: 10.6%
Second compound 0.01 µM, first compound 0.000316 µM
  viability, T/C: 102%
Second compound 0.01 µM, first compound 0.001 µM
  viability, T/C: 107%
Second compound 0.01 µM, first compound 0.00316 µM
  viability, T/C: 109%
Second compound 0.01 µM, first compound 0.01 µM
  viability, T/C: 114%
Second compound 0.01 µM, first compound 0.0316 µM
  viability, T/C: 122%
Second compound 0.01 µM, first compound 0.1 µM
  viability, T/C: 13%
Second compound 0.0316 µM, first compound 0.000316 µM
  viability, T/C: 98.6%
Second compound 0.0316 µM, first compound 0.001 µM
  viability, T/C: 106%
Second compound 0.0316 µM, first compound 0.00316 µM
  viability, T/C: 112%
Second compound 0.0316 µM, first compound 0.01 µM
  viability, T/C: 117%
[1]
  viability, T/C: 126%
[2]
  viability, T/C: 12.9%
Second compound 0.1 µM, first compound 0.000316 µM
  viability, T/C: 95.4%
Second compound 0.1 µM, first compound 0.001 µM
  viability, T/C: 106%
Second compound 0.1 µM, first compound 0.00316 µM
  viability, T/C: 115%
Second compound 0.1 µM, first compound 0.01 µM
  viability, T/C: 117%
[3]
  viability, T/C: 122%
[4]
  viability, T/C: 11.6%
Second compound 0.316 µM, first compound 0.000316 µM
  viability, T/C: 107%
Second compound 0.316 µM, first compound 0.001 µM
  viability, T/C: 111%
Second compound 0.316 µM, first compound 0.00316 µM
  viability, T/C: 109%
Second compound 0.316 µM, first compound 0.01 µM
  viability, T/C: 119%
[5]
  viability, T/C: 120%
[6]
  viability, T/C: 13.3%
Second compound 1 µM, first compound 0.000316 µM
  viability, T/C: 114%
Second compound 1 µM, first compound 0.001 µM
  viability, T/C: 110%
Second compound 1 µM, first compound 0.00316 µM
  viability, T/C: 112%
Second compound 1 µM, first compound 0.01 µM
  viability, T/C: 117%
[7]
  viability, T/C: 120%
[8]
  viability, T/C: 9.93%

## CC(=O)OC12COC1CC(O)C1(C)C(=O)C(O)C3=C(C)C(OC(=O)C(O)C(NC(=O)OC(C)(C)C)c4ccccc4)CC(O)(C(OC(=O)c4ccccc4)C21)C3(C)C (stereo unspecified) + C#Cc1c(F)ccc2cc(O)cc(-c3ncc4c(N5CC6CCC(C5)N6)nc(OCC56CCCN5CC(F)C6)nc4c3F)c12
Second compound 0.0316 µM
  IC50: < 31.6 nM
Second compound 0.1 µM
  IC50: < 31.6 nM
Second compound 0.316 µM
  IC50: < 31.6 nM
Second compound 1 µM
  IC50: < 31.6 nM
Second compound 3.16 µM
  IC50: < 31.6 nM
Second compound 10 µM
  IC50: < 31.6 nM
[1]
  viability, T/C: 0.76%
[2]
  viability, T/C: 1.3%
Second compound 0.0316 µM, first compound 0.316 µM
  viability, T/C: 1.24%
Second compound 0.0316 µM, first compound 1 µM
  viability, T/C: 1.01%
Second compound 0.0316 µM, first compound 3.16 µM
  viability, T/C: 1.67%
Second compound 0.0316 µM, first compound 10 µM
  viability, T/C: 0.89%
[3]
  viability, T/C: 1.76%
[4]
  viability, T/C: 0.93%
Second compound 0.1 µM, first compound 0.316 µM
  viability, T/C: 1.5%
Second compound 0.1 µM, first compound 1 µM
  viability, T/C: 1.51%
Second compound 0.1 µM, first compound 3.16 µM
  viability, T/C: 1.27%
Second compound 0.1 µM, first compound 10 µM
  viability, T/C: 0.89%
[5]
  viability, T/C: 1.1%
[6]
  viability, T/C: 0.78%
Second compound 0.316 µM, first compound 0.316 µM
  viability, T/C: 1.16%
Second compound 0.316 µM, first compound 1 µM
  viability, T/C: 1.88%
Second compound 0.316 µM, first compound 3.16 µM
  viability, T/C: 1.5%
Second compound 0.316 µM, first compound 10 µM
  viability, T/C: 0.79%
[7]
  viability, T/C: 1.5%
[8]
  viability, T/C: 0.8%
Second compound 1 µM, first compound 0.316 µM
  viability, T/C: 1.05%
Second compound 1 µM, first compound 1 µM
  viability, T/C: 2.04%
Second compound 1 µM, first compound 3.16 µM
  viability, T/C: 1.33%
Second compound 1 µM, first compound 10 µM
  viability, T/C: 0.88%
Second compound 3.16 µM, first compound 0.0316 µM
  viability, T/C: 1.91%
Second compound 3.16 µM, first compound 0.1 µM
  viability, T/C: 0.99%
Second compound 3.16 µM, first compound 0.316 µM
  viability, T/C: 1.37%
Second compound 3.16 µM, first compound 1 µM
  viability, T/C: 0.71%
Second compound 3.16 µM, first compound 3.16 µM
  viability, T/C: 1.08%
Second compound 3.16 µM, first compound 10 µM
  viability, T/C: 0.76%
Second compound 10 µM, first compound 0.0316 µM
  viability, T/C: 1.78%
Second compound 10 µM, first compound 0.1 µM
  viability, T/C: 0.88%
Second compound 10 µM, first compound 0.316 µM
  viability, T/C: 1.86%
Second compound 10 µM, first compound 1 µM
  viability, T/C: 1.55%
Second compound 10 µM, first compound 3.16 µM
  viability, T/C: 1.23%
Second compound 10 µM, first compound 10 µM
  viability, T/C: 0.77%

## CC1(C)CCC(Nc2ncc(C(F)(F)F)c(-c3c[nH]c4c(P(C)(C)=O)c(C#N)ccc34)n2)CN1 (stereo unspecified) + CCn1c(-c2cccnc2C(C)OC)c2c3cc(ccc31)N1CCOC(CC(NC(=O)C(C(C)C)N(C)C(=O)C3(F)CCN(C(=O)C#CC(C)(C)N(C)C)CC3)C(=O)N3CCCC(N3)C(=O)OCC(C)(C)C2)C1
Second compound 0.000949 µM
  IC50: 1.96 nM
Second compound 0.003 µM
  IC50: 1.84 nM
Second compound 0.00949 µM
  IC50: 1.83 nM
Second compound 0.03 µM
  IC50: 1.79 nM
Second compound 0.0949 µM
  IC50: 1.67 nM
Second compound 0.3 µM
  IC50: 1.46 nM
Second compound 0.000949 µM, first compound 0.000949 µM
  viability, T/C: 101%
Second compound 0.000949 µM, first compound 0.003 µM
  viability, T/C: 20.1%
Second compound 0.000949 µM, first compound 0.00949 µM
  viability, T/C: 4.36%
Second compound 0.000949 µM, first compound 0.03 µM
  viability, T/C: 3.1%
Second compound 0.000949 µM, first compound 0.0949 µM
  viability, T/C: 2.69%
Second compound 0.000949 µM, first compound 0.3 µM
  viability, T/C: 2.22%
Second compound 0.003 µM, first compound 0.000949 µM
  viability, T/C: 94.2%
Second compound 0.003 µM, first compound 0.003 µM
  viability, T/C: 17.3%
Second compound 0.003 µM, first compound 0.00949 µM
  viability, T/C: 4.24%
Second compound 0.003 µM, first compound 0.03 µM
  viability, T/C: 3.6%
Second compound 0.003 µM, first compound 0.0949 µM
  viability, T/C: 2.6%
Second compound 0.003 µM, first compound 0.3 µM
  viability, T/C: 2.53%
Second compound 0.00949 µM, first compound 0.000949 µM
  viability, T/C: 93.6%
Second compound 0.00949 µM, first compound 0.003 µM
  viability, T/C: 17%
Second compound 0.00949 µM, first compound 0.00949 µM
  viability, T/C: 4.24%
Second compound 0.00949 µM, first compound 0.03 µM
  viability, T/C: 2.85%
Second compound 0.00949 µM, first compound 0.0949 µM
  viability, T/C: 2.94%
Second compound 0.00949 µM, first compound 0.3 µM
  viability, T/C: 2.08%
Second compound 0.03 µM, first compound 0.000949 µM
  viability, T/C: 96.1%
Second compound 0.03 µM, first compound 0.003 µM
  viability, T/C: 12.4%
Second compound 0.03 µM, first compound 0.00949 µM
  viability, T/C: 3.38%
Second compound 0.03 µM, first compound 0.03 µM
  viability, T/C: 2.65%
Second compound 0.03 µM, first compound 0.0949 µM
  viability, T/C: 2.58%
Second compound 0.03 µM, first compound 0.3 µM
  viability, T/C: 1.92%
Second compound 0.0949 µM, first compound 0.000949 µM
  viability, T/C: 88.9%
Second compound 0.0949 µM, first compound 0.003 µM
  viability, T/C: 9.6%
Second compound 0.0949 µM, first compound 0.00949 µM
  viability, T/C: 2.64%
Second compound 0.0949 µM, first compound 0.03 µM
  viability, T/C: 2.41%
Second compound 0.0949 µM, first compound 0.0949 µM
  viability, T/C: 2.02%
Second compound 0.0949 µM, first compound 0.3 µM
  viability, T/C: 1.77%
Second compound 0.3 µM, first compound 0.000949 µM
  viability, T/C: 76.2%
Second compound 0.3 µM, first compound 0.003 µM
  viability, T/C: 5.86%
Second compound 0.3 µM, first compound 0.00949 µM
  viability, T/C: 2.85%
Second compound 0.3 µM, first compound 0.03 µM
  viability, T/C: 2.43%
Second compound 0.3 µM, first compound 0.0949 µM
  viability, T/C: 1.88%
Second compound 0.3 µM, first compound 0.3 µM
  viability, T/C: 1.61%
